Test results taken from patent EP2140864A2 (H. Lundbeck A/S, priority 2001, dated 2002).

Legend:
human α2C adrenoceptor = target: T1, human α2C adrenoceptor (Homo sapiens, UniProt P18825); experiment: Radioligand binding, α2C adrenergic receptor; settings: for Ki: Table 9, read-out: hα2C Ki; for selectivity ratio hα2C: Table 10, Ki hα2C divided by Ki hGAL3
T1 construct: expressed in transfected cells
T1 sequence (P18825 1-462): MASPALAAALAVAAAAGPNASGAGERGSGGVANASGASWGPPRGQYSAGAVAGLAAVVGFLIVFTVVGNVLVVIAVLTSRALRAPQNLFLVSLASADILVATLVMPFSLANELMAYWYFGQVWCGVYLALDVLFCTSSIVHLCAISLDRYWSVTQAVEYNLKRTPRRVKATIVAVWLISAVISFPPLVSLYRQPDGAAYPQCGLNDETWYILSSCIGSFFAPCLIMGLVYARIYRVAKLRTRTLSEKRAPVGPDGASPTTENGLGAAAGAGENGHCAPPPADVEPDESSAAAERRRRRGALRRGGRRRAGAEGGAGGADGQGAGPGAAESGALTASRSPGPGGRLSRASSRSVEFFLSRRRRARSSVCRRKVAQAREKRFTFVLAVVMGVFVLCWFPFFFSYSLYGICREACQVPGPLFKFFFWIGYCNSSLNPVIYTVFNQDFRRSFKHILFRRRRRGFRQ
Source text: (§1) Other receptors: Cell membranes expressing human dopamine D1, D2, D4 and rat D3 receptors were purchased through BioSignal, Inc. (Montreal, Canada). Binding assays using the histamine H1 receptor; dopamine receptors; and α1A, α1E, and α2 adrenergic receptors may be carried out according to the procedures described in U.S. Patent No. 5,780,485, the disclosure of which is hereby incorporated by reference in its entirety into this application. Binding assays using the dopamine D5 receptor may be carried out according to the procedures described in U.S. Patent No. 5,882,855, the disclosure of which is hereby incorporated by reference in its entirety into this application. Binding assays for the human α1D adrenergic receptor may be carried out according to the procedures described in U.S. Patent No. 6,156,518, the disclosure of which is hereby incorporated by reference in its entirety into this application.
(§2) Binding data were analyzed using nonlinear regression and statistical techniques available in the GraphPAD Prism package (San Diego, CA). Enzymatic assay data were derived from a standard curve of reference compound data.

human 5HT1A receptor = target: T2, human 5HT1A receptor (Homo sapiens, UniProt P08908); experiment: Radioligand binding, 5-HT1A receptor (3H-8-OH-DPAT); settings: for Ki: Table 7, read-out: h5HT1A Ki; for selectivity ratio h5HT1A: Table 8, Ki h5HT1A divided by Ki hGAL3
T2 construct: expressed in transfected cells; host or cells: COS-7 cells, transient (pCEXV-3 vector)
T2 sequence (P08908 1-422): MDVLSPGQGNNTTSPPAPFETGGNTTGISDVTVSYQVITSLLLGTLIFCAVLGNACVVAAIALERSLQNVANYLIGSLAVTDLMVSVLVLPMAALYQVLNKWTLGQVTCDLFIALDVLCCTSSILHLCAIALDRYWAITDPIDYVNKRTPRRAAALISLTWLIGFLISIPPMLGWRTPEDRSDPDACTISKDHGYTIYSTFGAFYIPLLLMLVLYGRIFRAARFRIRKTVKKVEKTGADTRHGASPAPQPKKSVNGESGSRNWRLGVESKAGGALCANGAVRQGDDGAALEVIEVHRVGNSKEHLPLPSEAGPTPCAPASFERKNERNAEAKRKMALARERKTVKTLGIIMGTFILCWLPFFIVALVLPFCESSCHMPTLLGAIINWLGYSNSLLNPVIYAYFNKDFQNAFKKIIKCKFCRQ
Method: 5-HT1A Receptor: The cDNA corresponding to the 5-HT1A receptor open reading frames and variable non-coding 5'-and 3'-regions, was cloned into the eukaryotic expression vector pCEXV-3. These constructs were transfected transiently into COS-7 cells by the DEAE-dextran method (Cullen, 1987), and harvested after 72 hours. Radioligand binding assays were performed as described above for the 5-HT2A receptor, except that ^3H-8-OH-DPAT was used as the radioligand and nonspecific binding was determined by the addition of 10 µM mianserin.
as §2

human 5HT4 receptor = target: T3, human 5HT4 receptor (Homo sapiens, UniProt Q13639); experiment: Radioligand binding, 5-HT4 receptor; settings: for Ki: Table 7, read-out: h5HT4 Ki; for selectivity ratio h5HT4: Table 8, Ki h5HT4 divided by Ki hGAL3
T3 construct: expressed in transfected cells
Method: Other 5-HT Receptors: Other serotonin receptor binding assays were performed according to published methods: rat 5HT2C receptor (Julius et al., 1988); and 5-HT6 (Monsma, et al., 1993). The binding assays using the 5-HT4 receptor were performed according to the procedures described in U.S. Patent No. 5,766,879, the disclosure of which is hereby incorporated by reference in its entirety into this application.
as §2

human dopamine D1 = target: T4, human dopamine D1 (Homo sapiens, UniProt P21728); experiment: Radioligand binding, dopamine D1 receptor; settings: for Ki: Table 9, read-out: hD1 Ki; for selectivity ratio hD1: Table 10, Ki hD1 divided by Ki hGAL3
T4 construct: purchased BioSignal, Inc. (Montreal, Canada); host or cells: membranes of cells expressing the receptor
Source text: as §1, §2

[1] = target: T5, human α1D adrenergic receptor (Homo sapiens, UniProt P25100); experiment: Radioligand binding, α1D adrenergic receptor; settings: for Ki: Table 9, read-out: hα1D Ki; for selectivity ratio hα1D: Table 10, Ki hα1D divided by Ki hGAL3
T5 construct: expressed in transfected cells
T5 sequence (P25100 1-572): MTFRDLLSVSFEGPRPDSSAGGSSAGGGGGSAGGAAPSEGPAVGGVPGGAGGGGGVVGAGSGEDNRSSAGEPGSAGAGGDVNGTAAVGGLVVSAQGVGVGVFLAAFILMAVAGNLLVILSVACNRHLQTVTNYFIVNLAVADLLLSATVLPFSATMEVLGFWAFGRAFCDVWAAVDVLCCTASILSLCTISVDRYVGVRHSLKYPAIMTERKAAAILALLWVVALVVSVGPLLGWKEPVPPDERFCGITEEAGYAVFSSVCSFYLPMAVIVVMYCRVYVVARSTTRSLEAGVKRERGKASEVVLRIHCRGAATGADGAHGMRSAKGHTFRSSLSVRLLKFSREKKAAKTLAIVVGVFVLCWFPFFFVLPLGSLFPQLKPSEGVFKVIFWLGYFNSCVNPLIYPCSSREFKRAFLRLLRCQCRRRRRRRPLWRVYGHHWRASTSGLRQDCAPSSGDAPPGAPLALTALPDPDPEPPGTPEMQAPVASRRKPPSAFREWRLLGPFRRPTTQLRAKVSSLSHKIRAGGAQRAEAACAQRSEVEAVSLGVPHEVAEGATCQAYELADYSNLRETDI
Source text: as §1, §2

human 5HT1B = target: T6, human 5HT1B (Homo sapiens, UniProt P28222); experiment: Radioligand binding, 5HT1B receptor ([3H]-serotonin); settings: for Ki: Table 7, read-out: h5HT1B Ki; for selectivity ratio h5HT1B: Table 8, Ki h5HT1B divided by Ki hGAL3
T6 construct: expressed in transfected cells
Method: Human 5HT1B, 5HT1D, 5HT1E, 5HT1F, and 5HT7 Receptors: The cell lysates of LM(tk-) clonal cell line stably transfected with the genes encoding each of these 5HT receptor-subtypes were prepared as described above. Cell membranes were suspended in 50mM Tris-HCl buffer (pH 7.4 at 37°C) containing 10 mM MgCl2, 0.2 mM EDTA, 10 µM pargyline, and 0.1% ascorbate. […] Nonspecific binding was determined in the presence of 10 µM serotonin. The bound radioligand was separated by filtration through GF/B filters using a cell harvester.
as §2

T3 sequence (Q13639 whole entry): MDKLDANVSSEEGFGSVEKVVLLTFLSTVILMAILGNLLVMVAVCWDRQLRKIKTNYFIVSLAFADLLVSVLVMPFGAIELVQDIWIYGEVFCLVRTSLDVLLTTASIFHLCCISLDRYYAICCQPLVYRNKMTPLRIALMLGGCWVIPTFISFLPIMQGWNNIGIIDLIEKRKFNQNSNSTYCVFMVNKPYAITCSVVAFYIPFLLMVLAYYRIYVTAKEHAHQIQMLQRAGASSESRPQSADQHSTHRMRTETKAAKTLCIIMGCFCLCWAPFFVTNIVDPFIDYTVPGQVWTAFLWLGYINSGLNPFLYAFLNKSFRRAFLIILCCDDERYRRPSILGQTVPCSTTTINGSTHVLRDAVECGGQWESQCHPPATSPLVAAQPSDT
T6 sequence (P28222 whole entry): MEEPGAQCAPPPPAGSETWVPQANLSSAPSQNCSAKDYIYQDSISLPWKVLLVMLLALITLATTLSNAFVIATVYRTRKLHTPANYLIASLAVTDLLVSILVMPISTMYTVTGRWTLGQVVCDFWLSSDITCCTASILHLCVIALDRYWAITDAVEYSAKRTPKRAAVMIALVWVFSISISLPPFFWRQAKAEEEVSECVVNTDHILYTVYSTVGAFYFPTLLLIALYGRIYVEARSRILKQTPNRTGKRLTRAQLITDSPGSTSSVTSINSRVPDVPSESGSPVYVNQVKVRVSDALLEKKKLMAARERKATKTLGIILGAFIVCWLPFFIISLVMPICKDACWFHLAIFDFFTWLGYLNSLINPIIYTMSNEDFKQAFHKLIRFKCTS
T4 sequence (P21728 whole entry): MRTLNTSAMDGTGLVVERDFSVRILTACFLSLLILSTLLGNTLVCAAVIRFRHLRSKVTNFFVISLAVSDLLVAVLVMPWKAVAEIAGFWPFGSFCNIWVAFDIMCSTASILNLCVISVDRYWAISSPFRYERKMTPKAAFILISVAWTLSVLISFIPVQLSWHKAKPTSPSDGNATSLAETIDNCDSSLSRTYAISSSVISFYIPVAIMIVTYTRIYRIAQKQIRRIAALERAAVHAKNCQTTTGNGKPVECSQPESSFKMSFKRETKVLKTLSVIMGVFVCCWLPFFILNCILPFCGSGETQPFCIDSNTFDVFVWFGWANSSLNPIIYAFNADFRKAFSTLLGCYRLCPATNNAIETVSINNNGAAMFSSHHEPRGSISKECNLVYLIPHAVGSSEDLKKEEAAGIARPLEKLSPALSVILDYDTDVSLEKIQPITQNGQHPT

Compound | Ki (human α2C adrenoceptor) | selectivity ratio hα2C (human α2C adrenoceptor) | Ki (human 5HT1A receptor) | selectivity ratio h5HT1A (human 5HT1A receptor) | Ki (human 5HT4 receptor) | selectivity ratio h5HT4 (human 5HT4 receptor) | Ki (human dopamine D1) | selectivity ratio hD1 (human dopamine D1) | Ki [1] | selectivity ratio hα1D [1] | Ki (human 5HT1B) | selectivity ratio h5HT1B (human 5HT1B)
O=C1C(=Nc2ccc(Cl)cc2)c2ccccc2N1c1ccccc1 [Example 97, 3-[(4-CHLOROPHENYL)IMINO]-1-PHENYL-1,3-DIHYDRO-2H-INDOL-2-ONE] | > 50 µM | >100 | > 50 µM | >100 | 2.55 µM | >30 | 25.1 µM | >100 | 6.45 µM | >100 | 5.06 µM | >30
Cc1ccc(Nc2cc(N3CCCCC3)nc(N(C)CCc3c[nH]c4ccccc34)n2)cc1 [Example 11] | 3 µM | >30 | 4.68 µM | >30 | 1.31 µM | 14 | 0.079 µM | 0.9 | 0.264 µM | 3 | 0.101 µM | 1
